Molecules are shown by their SMILES. Marks after values point to notes of the source that are not given here.

One experiment relates to serum vitamin A. Kind of experiment: Example 4: serum vitamin A in nursery pigs fed full or partial compositions of Combo, weaning to end of nursery. It is filed as in vivo. Here is the method: Serum samples were collected from two randomly selected pigs per pen with a total of 4 pigs per treatment at weaning (prior to access of the experimental diets) and at the end of the nursery phase when pigs reached approximately 45 lb of BW. Serum samples were analyzed for vitamin A concentration.

The test system of the next experiment is nursery pigs. Kind of experiment: Example 4: growth performance and livability of nursery pigs from 8 to 45 lb of BW, full vs. partial components, 65 d.
[1] abbreviates: end of nursery (approx. 45 lb BW).
[2] abbreviates: 8 to 45 lb BW, Combo and Yeast/DFM 1.0 lb/ton, L-Carnitine 50 ppm.
Where [3] appears, read: Early nursery, Phase 1 to 2, 22 d post-weaning.
Where [4] appears, read: Entire nursery, Phase 1 to 4, 65 d post-weaning.
The mark [5] stands for this setting: Late nursery, Phase 3 to 4, 43 d post-weaning.

Regarding `C[N+](C)(C)C[C@H](O)CC(=O)[O-]` [carnitine, L-Carnitine], the “percentage increase of serum vitamin A concentration from weaning to the end of nursery” value in the experiment with serum vitamin A (Combo and Yeast/DFM 1.0 lb/ton, L-Carnitine 50 ppm, FIG. 6) worked out at 114%. Moreover, in the experiment with serum vitamin A (setting [1]), the “serum vitamin A concentration, Max.” value was 0.198 ppm; the “serum vitamin A concentration, Mean” value was determined as 0.168 ppm; the “serum vitamin A concentration, Min.” value was 0.143 ppm. The “serum vitamin A concentration at the end of nursery” value in the experiment with serum vitamin A (~45 lb BW, Combo and Yeast/DFM 1.0 lb/ton, L-Carnitine 50 ppm, 4 pigs per treatment) is given as 0.503 ppm. In the experiment with nursery pigs (setting [2]), the “greater nursery closeout ADG compared to Control” value is reported as 29% and the “greater nursery closeout G/F compared to Control” value came to 29%. Further, in the experiment on nursery pigs (Early nursery, 22 d post-weaning), the “BW end of Phase 2” value is 13.3 ^b lb. This compound displayed an ADFI with nursery pigs (Early nursery, Phase 1 to 2, 22 d) of 0.68 lb/day. In the experiment with nursery pigs (setting [3]), the ADG is given as 0.16 lb/day, the “G:F” value was 0.241 ^b and the Mortality is recorded as 31.48%. The ADFI in the experiment on nursery pigs (Entire nursery, Phase 1 to 4, 65 d) is 1.01 ^a lb/day. In the experiment with nursery pigs (setting [4]), the ADG was 0.31 ª lb/day; the “ADG, change compared to Control” value is recorded as “(+29%)”; the G/F is 0.282 ^b; the “G/F, change compared to Control” value is recorded as “(+29%)”. This compound had a Mortality in the experiment on nursery pigs (setting [4]) of 46.30%. The “Closeout BW end of Phase 4” value in the experiment with nursery pigs (Late nursery, Phase 3 to 4) turned out to be 43.2 lb. For the same compound, the ADFI in the experiment on nursery pigs (Late nursery, Phase 3 to 4, 43 d) is 1.32 ª lb/day. Also, in the experiment with nursery pigs (setting [5]), the ADG is reported as 0.78 ^c lb/day, the F/G amounted to 1.69 and the Mortality is reported as 14.81%.

For the origin of these results see patent US20250057191A1, “METHODS OF IMPROVING THE NUTRITIONAL STATUS OF IMMUNE STRESSED ANIMALS” (ELANCO US INC., priority 2021, published 2025).
